# According to US8304238B2, “Cell culture medium and immobilized preparation of cell adhesion protein or peptide” (Nat'l Institute for Environmental Studies, priority 2003, dated 2012):
# Where no end group is shown, it is not given here. [ ]: non-standard residue; d: D form. Nle = CCCC[C@H](N)C(=O)O
# Experiments:
# [1] = system: alveolar type II epithelial cells (T2 cells); assay: Adhesion of T2 cells to pseudomatrix adsorbed/immobilized from DMEM and competitive inhibition by free peptides; assay type: cell-based; details: for Competitive inhibition of cell adhesion to pseudomatrix by free cell adhesion peptide: pseudomatrix 1-10 μg/ml in DMEM
# Experimental: 200 mg each of hydrophobic binding-adsorptive polymer, MBAC, MAST or MMAC were dispersed into water, and 1 N NaOH solution was added little by little to dissolve them completely. 50 mg of WSC (1-ethyl-3-(3-dimethylamino propyl)carbodiimide, hydrochloride) was added to the resulting solution, and the reaction was conducted for 2 hours. Subsequently, 20 mg of peptide was added, and the reaction was continued with stirring for 2 hours at room temperature. After the reaction was finished, the reactant was subjected to dialysis with water to remove alkaline and low molecules, and then freeze-dried to prepare a pseudomatrix of interest.
# (§1) Each pseudomatrix prepared in Example 13 to which cell adhesion peptide was bound (MBAC-peptide) was diluted in DMEM medium to the concentration of 1-10 μg/ml, and the resultant solution was poured into a 96-well by 100 μl each, and left still overnight in a CO2 incubator to be adsorbed and immobilized on the wells. Non-adsorbed MBAC-peptides were removed by rinsing well with DMEM medium. Next, T2 cells suspended at the concentration of 6×10^5 cells/ml were seeded in the serum-free DMEM by 100 μl each. After 1-day serum-free culture, T2 cells were fixed with 100 μl of methanol for 5 minutes, and stained with 50 μl of 0.4% crystal violet for 30 minutes. Excessive staining was washed with water, and the number of adhering cells was counted based on the absorbance of cytoplasm (A595).
# In the same manner as in Example 14, each pseudomatrix prepared in Example 13 to which cell adhesion peptide was bound (MAST-peptide) was adsorbed and immobilized on a 96-well, and T2 cells were seeded and cultured thereon.
# [2] = system: alveolar type II epithelial cells (T2 cells); assay: Inhibition of T2 cell adhesion to immobilized pseudomatrix by treatment with polyclonal antibodies for the peptides; assay type: cell-based; details: for Inhibition of cell adhesion by anti-FIB-1 antibody: immobilized at 1 μg/ml; for Cell adhesion ability of immobilized pseudomatrix compared with coated FN: MBAC-peptide 1-10 μg/ml in DMEM; for Inhibition of cell adhesion by treatment with antibodies for the peptides: antibodies 4-10 μg/ml, 2-4 hours
# Experimental: as §1, with “μg/ml,” for “μg/ml, and the resultant solution was”, “Next, 100 μl of antibodies diluted with serum-free DMEM to the concentration of 4-10 μg/ml was poured into a well, incubated for 2-4 hours to let the antibodies bind to the peptides. Normal IgG was used for control groups. Antibodies were removed after the treatment,” for “Next,”, “seeded” for “seeded in the serum-free DMEM”
# [3] = system: alveolar type II epithelial cells (T2 cells); assay: Inhibition of T2 cell adhesion by anti-FIB-1 antibody after MBAC/MAST-FIB-1 in 50% ethanol is air-dried/immobilized; assay type: cell-based; details: 4 μg/ml antibody 4 hours; FIB-1 concentration 0.1-0.25 μg/well
# Experimental: In the same manner as in Example 21, MBAC/MAST-FIB-1 was diluted with 50% ethanol, poured into wells, and air-dried/immobilized. Before T2 cells were seeded, 100 μl of 4 μg/ml anti-FIB-1 polyclonal antibody was poured into the well, and incubated for 4 hours to allow the antibody to bind to the immobilized FIB-1 peptide. Controls were treated with normal IgG. T2 cells were cultured, fixed, and stained in the same manner as in Example 21.
# [4] = system: alveolar type II epithelial cells (T2 cells); assay: Adhesion of T2 cells to pseudomatrices dissolved in 50% ethanol and air-dried/immobilized, and competitive inhibition by free peptide; assay type: cell-based; details: for Adhesion of T2 cells to pseudomatrix compared with coated FN: 50% ethanol, air-dried, 0.1-1.0 μg/well, 24 hours serum-free
# Experimental: 50 μl of 2-20 μg/ml MAST-GRGDSP (Gly-Arg-Gly-Asp-Ser-Pro) (SEQ ID NO: 22) and MMAC-GRGDSP (SEQ ID NO: 22) dissolved in 50% ethanol were poured into wells, and air-dried/immobilized. Next, the wells to which MAST-GRGDSP (SEQ ID NO: 22) and MMAC-GRGDSP (SEQ ID NO: 22) (0.1-1.0 μg/well) were coated were rinsed with the serum-free DMEM medium. T2 cells suspended in the medium at the concentration of 6×10^4 cells/100 μl were seeded, and cultured in a CO2 incubator at 37° C. for 24 hours. Then, the cells were fixed with methanol, stained, and measured its absorbance according to the method in Example 7. A culture wherein FN was coated as a standard material was conducted simultaneously. The cell adhesion on FN was shown as a standard (100%).
# In the same manner as in Example 18, MAST-GRGDSP (SEQ ID NO: 22) was dissolved in 50% ethanol, air-dried/immobilized on wells, and T2 cells were seeded/cultured thereon. Separately, just before the cells were seeded, 0.25-4.0 mg/ml of free GRGDSP (SEQ ID NO: 22) peptide was added to the cell suspension, and the culture and the subsequent measurement of absorbance were conducted in the same manner as described above. […] Further, when the applied amount of MAST-GRGDSP (SEQ ID NO: 22) was decreased, the immobilized amount of GRGDSP (SEQ ID NO: 22) decreased, and the competitive inhibition by free GRGDSP (SEQ ID NO: 22) peptide worked more effectively.
# In the same manner as in Example 18, MMAC-GRGDSP (SEQ ID NO: 22) was dissolved in 50% ethanol, air-dried/immobilized on wells, and T2 cells were seeded/cultured thereon. Separately, just before the cells were seeded, 0.25-4.0 mg/ml of free GRGDSP (SEQ ID NO: 22) peptide was added to the cell suspension, and the culture and the subsequent measurement of absorbance were conducted in the same manner as described above.
# In the same manner as in Example 18, MBAC/MAST-AG73 and -FIB-1 were dissolved in 50% ethanol, air-dried/immobilized on wells, and T2 cells were seeded/cultured thereon. Separately, just before the cells were seeded, 0.25 mg/ml of free AG73 or FIB-1 peptide was added to the cell suspension, and the culture and the subsequent measurement of absorbance were conducted in the same manner as described above.
# [5] = system: alveolar type II epithelial cells (T2 cells); assay: Inhibition of T2 cell adhesion to immobilized pseudomatrices by heparin treatment; assay type: cell-based; details: Nle used instead of Met
# Experimental: Pseudomatrices prepared in Example 13 to which each cell adhesion peptide was bound (MBAC-peptide) was diluted in DMEM medium to the concentration of 1-10 μg/ml, poured into 96-wells by 100 μl each, and left still overnight in a CO2 incubator to be adsorbed and immobilized on the wells. Non-adsorbed MBAC-peptide was removed by rinsing well with DMEM medium. Next, 100 μl of DMEM in which 1 mg/ml of heparin was dissolved was poured into the wells, incubated for 2 hours to allow heparin to bind to the peptides. Control groups were treated with DMEM only. Heparin was removed after the treatment, and T2 cells suspended at the concentration of 6×10^5 cells/ml were seeded by 100 μl each. After 1-day serum-free culture, T2 cells were fixed with 100 μl of methanol for 5 minutes, and stained with 50 μl of 0.4% crystal violet for 30 minutes. Excessive staining was washed with water, and the number of adhering cells was counted based on the absorbance of cytoplasm (A595).
# [6] = molecular target: syndecan present on the cell surface of T2 cells (alveolar type II epithelial cells); assay: T2 cell adhesion to immobilized peptides, competitive inhibition by free peptides (FIGS. 8 and 9)
# [7] = molecular target: syndecan present on the cell surface of T2 cells (alveolar type II epithelial cells); assay: T2 cell adhesion to FIB-1 and AG73 co-immobilized on MMAC-coated wells, inhibition by free FIB-1 (FIG. 9)
# [8] = molecular target: integrin on T2 cells (integrin α5β1); assay: reference of the ratio; T2 cell adhesion to immobilized peptides (FIGS. 8 and 9)
# [9] = molecular target: adhesion receptor present on the cell surface of T2 cells (not named); assay: T2 cell adhesion to FIB-1 and the peptide co-immobilized on MMAC-coated wells, inhibition by free FIB-1 (FIG. 9)
# [10] = molecular target: adhesion receptor present on the cell surface of T2 cells (not named); assay: T2 cell adhesion to immobilized peptides, competitive inhibition by free peptides (FIGS. 8 and 9)
# [11] = molecular target: adhesion receptor present on the cell surface of T2 cells (not named); assay: cell-based or functional assay
molecule,measurement,setting,value
MAST-FIB-1: pseudomatrix: MAST polymer reacted with FIB-1 peptide (YAVTGRGDSPAS),Cell adhesion ability of immobilized pseudomatrix compared with directly coated FN,"[1]; 1-10 μg/ml in DMEM, 1-day serum-free culture, excluding 1 μg/ml of MBAC-AG73",the same level of cell adhesion ability as in the case where FN was directly coated
same,Competitive inhibition of cell adhesion to pseudomatrix by free cell adhesion peptide,[1],"competitively inhibited by the free cell adhesion peptide, the degree is lower than the case of MBAC-peptide"
same,Inhibition of cell adhesion by anti-FIB-1 antibody,[2],equally inhibited
same,Degree of inhibition of cell adhesion by the antibody,[2]; immobilized at 2.5-10 μg/ml,low
same,Inhibition of cell adhesion by anti-FIB-1 polyclonal antibody,[3],specifically inhibited by the antibody
same,Competitive inhibition of cell adhesion by free peptide,"[4]; 50% ethanol air-dried pseudomatrix, 0.25 mg/ml free AG73 or FIB-1",worked more effectively in accordance with the decrease in the amount of immobilized FIB-1
same,Adhesion of T2 cells to pseudomatrix compared with coated FN,[4],similarly to the case where FN was coated
MBAC-A4G82X: pseudomatrix: MBAC polymer reacted with A4G82X peptide (TLFLAHGRLVF[Nle]; also: peptide reacted with MBAC polymer (pseudomatrix)),Competitive inhibition of cell adhesion to pseudomatrix by free cell adhesion peptide,[1],inhibited by free A4G82 peptide
same,Cell adhesion ability of Nle pseudomatrix compared with immobilized Met peptide,[5],the same level of cell adhesion ability
MBAC-AG81.2X: pseudomatrix: MBAC polymer reacted with AG81.2X peptide (VKTEYIKRKAF[Nle]; also: peptide reacted with MBAC polymer (pseudomatrix)),Cell adhesion ability of immobilized pseudomatrix compared with coated FN,[2],the same level of cell adhesion ability as in the case where FN was coated
same,Inhibition of cell adhesion by treatment with antibodies for the peptides,[2],specifically inhibited
same,Cell adhesion ability of Nle pseudomatrix compared with immobilized Met peptide,[5],the same level of cell adhesion ability
MBAC-FIB-1: pseudomatrix: MBAC polymer reacted with FIB-1 peptide (YAVTGRGDSPAS),Competitive inhibition of cell adhesion to pseudomatrix by free cell adhesion peptide,[1],competitively inhibited
same,Cell adhesion ability of immobilized pseudomatrix compared with coated FN,[2],the same level of cell adhesion ability as in the case where FN was coated
same,Inhibition of cell adhesion by treatment with antibodies for the peptides,[2],specifically inhibited
same,Inhibition of cell adhesion by anti-FIB-1 antibody,[2],equally inhibited
same,Inhibition of cell adhesion by anti-FIB-1 polyclonal antibody,[3],specifically inhibited by the antibody
same,Adhesion of T2 cells to pseudomatrix compared with coated FN,[4],similarly to the case where FN was coated
polymer-A5G73X: pseudomatrix: polymer (MBAC in FIG. 14) reacted with A5G73X peptide (RNRLHLS[Nle]LVRP; also: peptide reacted with MBAC polymer (pseudomatrix)),Cell adhesion ability of Nle pseudomatrix compared with immobilized Met peptide,[5],the same level of cell adhesion ability
polymer-AG76.8X: pseudomatrix: polymer (MBAC in FIG. 14) reacted with AG76.8X peptide (TLQLQEGRLHF[Nle]; also: peptide reacted with MBAC polymer (pseudomatrix)),Cell adhesion ability of Nle pseudomatrix compared with immobilized Met peptide,[5],the same level of cell adhesion ability
RKRLQVQLSIRT [AG73 (Arg-Lys-Arg-Leu-Gln-Val-Gln-Leu-Ser-Ile-Arg-Thr)],"Binding strength to T2 cells, Ratio to FIB-1 (fold (ratio to FIB-1))",[6],100
same,mixing ratio at the transitional midpoint (peptide to FIB-1),[7],0.01
YAVTGRGDSPAS [FIB-1 (Tyr-Ala-Val-Thr-Gly-Arg-Gly-Asp-Ser-Pro-Ala-Ser)],"Binding strength to T2 cells, Ratio to FIB-1 (fold (ratio to FIB-1))",[8],1
GPLPSYLQFVGI [A5G71 (Gly-Pro-Leu-Pro-Ser-Tyr-Leu-Gln-Phe-Val-Gly-Ile)],mixing ratio at the transitional midpoint (peptide to FIB-1),[9],1
same,"Binding strength to T2 cells, Ratio to FIB-1 (fold (ratio to FIB-1))",[10],< 1
GRGDSP [GRGDSP (Gly-Arg-Gly-Asp-Ser-Pro)],competitive inhibition of T2 cell adhesion to immobilized MAST-GRGDSP by free GRGDSP peptide,[11],4 mg/mL
same,competitive inhibition of T2 cell adhesion to immobilized MMAC-GRGDSP by free GRGDSP peptide,[11],1 to 4 mg/mL
